Columns and labels:
intracellular T. cruzi = settings: racemic mixture; cited from earlier work
T. cruzi (amastigotes) = assay: T. cruzi amastigote assay; assay type: cell-based, Trypanosoma cruzi; settings: for IC50: Trypanosoma cruzi, Vero, 72 h, read-out: T. cruzi (amastigotes) ED50; for Antiparasitic activity against intracellular T. cruzi (in words): amastigotes
Vero cells = assay type: cell-based; settings: for Cytotoxicity at 15 µM / Cytotoxicity at 20 µM: 72 h; for Cytotoxicity ED50: treatment for 72 h
truncated TcSQS = settings: soluble enzyme cloned and expressed in Escherichia coli; cited from earlier work
[1] = test system: mitochondrial and glycosomal TcSQS (wild type); settings: membrane protein; cited from earlier work

N#C[Se]CC1Cc2ccc(Oc3ccccc3)cc2O1 (racemic) [(±)-8]
ED50 against intracellular T. cruzi (intracellular T. cruzi): 0.083 µM | IC50 (T. cruzi (amastigotes)): 0.0939 ± 0.025 µM

FC(F)(F)SCCOc1ccc(Oc2ccccc2)cc1 [Compound 9, (2-(4-Phenoxyphenoxy)ethyl)(trifluoromethyl)sulfane]
IC50 (T. cruzi (amastigotes)): > 10 µM

FC(F)(F)[Se]CCOc1cccc(Oc2ccccc2)c1 [Compound 12, (2-(3-Phenoxyphenoxy)ethyl)(trifluoromethyl)selane]
IC50 (T. cruzi (amastigotes)): > 1 µM

N#CCCOc1ccc(Oc2ccccc2)cc1 [Compound 13, 4-Phenoxyphenoxyethyl cyanide]
IC50 (T. cruzi (amastigotes)): > 10 µM | Antiparasitic activity against intracellular T. cruzi (in words) (T. cruzi (amastigotes)): inactive

N#CCCCOc1ccc(Oc2ccccc2)cc1 [Compound 14, 3-(4-Phenoxyphenoxy)propyl cyanide]
IC50 (T. cruzi (amastigotes)): > 10 µM | Antiparasitic activity against intracellular T. cruzi (in words) (T. cruzi (amastigotes)): inactive

COc1ccc(OCC[Se]C#N)cc1 [Compound 20, 4-Methoxyphenoxyethyl selenocyanate]
IC50 (T. cruzi (amastigotes)): > 10 µM | T. cruzi (amastigotes) inhibition at 6 µM (T. cruzi (amastigotes); at 6 µM): no inhibition | Cytotoxicity at 15 µM (Vero cells): ^**cytotoxic at 20 µM, 15 µM | Cytotoxicity at 20 µM (Vero cells): ^**cytotoxic at 20 µM, 15 µM

N#C[Se]CCOc1ccccc1 [Compound 21, Phenoxyethyl selenocyanate]
IC50 (T. cruzi (amastigotes)): > 10 µM | Cytotoxicity at 20 µM (Vero cells): ^**cytotoxic at 20 µM

N#C[Se]CCOc1ccc([N+](=O)[O-])cc1 [Compound 22, 4-Nitrophenoxyethyl selenocyanate]
IC50 (T. cruzi (amastigotes)): 3.87 ± 1.3 µM | Cytotoxicity at 15 µM (Vero cells): ^**cytotoxic at 20 µM, 15 µM | Cytotoxicity at 20 µM (Vero cells): ^**cytotoxic at 20 µM, 15 µM

N#C[Se]CCOc1ccccc1Oc1ccccc1 [Compound 43, 2-Phenoxyphenoxyethyl selenocyanate]
IC50 (T. cruzi (amastigotes)): > 10 µM | Antiparasitic activity against intracellular T. cruzi (in words) (T. cruzi (amastigotes)): free of anti-T. cruzi activity

N#CSCCOc1ccccc1Oc1ccccc1 [Compound 44, 2-Phenoxyphenoxyethyl thiocyanate]
IC50 (T. cruzi (amastigotes)): > 10 µM | Antiparasitic activity against intracellular T. cruzi (in words) (T. cruzi (amastigotes)): free of anti-T. cruzi activity

N#CSCCOc1ccc(Oc2ccccc2)cc1 [WC-9, 4-Phenoxyphenoxyethyl Thiocyanate]
Inhibition of truncated TcSQS (in words) (truncated TcSQS): inactive | Inhibition of TcSQS enzymatic activity (in words) [1]: non-competitive nanomolar inhibitor

O=C(Cn1ccnc1[N+](=O)[O-])NCc1ccccc1 [benznidazole, reference compound]
IC50 (T. cruzi (amastigotes)): 2.48 ± 0.45 µM

(2-(3-Phenoxyphenoxy)ethyl)(trifluoromethyl)sulfane [Compound 10]
T. cruzi (amastigotes) % inhibition at 1.0 µM (T. cruzi (amastigotes); at 1.0 µM): 6.7% | Cytotoxicity ED50 (Vero cells): > 20 µM

(2-(4-Phenoxyphenoxy)ethyl)(trifluoromethyl)selane [Compound 11]
Cytotoxicity ED50 (Vero cells): > 20 µM

— PMC6421105 (Bioorganic & medicinal chemistry, 2019)
